In a melting point compilation (Tetko et al.; mined from patent text by program, amines drawn as free bases though some values may be those of a salt):

Compound `COc1cc(C(=O)c2c[nH]c(-c3c[nH]c4ccccc34)n2)cc(OC)c1OC` has a melting point of 208 to 210 °C. `OCC(O)c1cccc(OCc2ccc3ccccc3c2)c1` (stereo not drawn) showed a melting point of 121 to 122 °C. Work on `COc1ccc2oc(C(=O)OCC(C)(C)C(O)C(C)(C)C)cc2c1` (stereo not drawn) yielded a melting point of 114 °C. In the case of `CN1CCN(c2ccc(N/C=C3\C(=O)NC(=O)c4ccc(I)cc43)cc2)CC1`, the melting point is reported as 220 to 221 °C. Work on `CS(=O)(=O)c1ccc(-c2c(F)c3cccccc-3c2-c2ccccc2)cc1` yielded a melting point of 120 to 122 °C. With `Cc1c(C(=O)CC(C)C)cc2c(c1C)OC(C(=O)O)C2` (stereo not drawn) the melting point was 117 °C. In the case of `O=C(Nc1ccc(C(=O)N2CCc3cn[nH]c3-c3ccccc32)cn1)c1ccccc1-c1ccccc1`, the melting point is reported as 228 to 234 °C. Work on `Cc1oc(-c2ccccc2)nc1CN(C)Cc1ccc(C[C@@H](C(=O)O)n2cccc2)cc1` yielded a melting point of 133 to 135 °C. With `CC(F)(F)c1cccc(-n2cnc(CO)c2)c1` the melting point was 104 to 108 °C. With `CCCCCCCCc1c(CCCCCCCC)c(-c2ccccc2)n(-c2ccc(C)cc2)c1-c1ccccc1` the melting point was 100 to 101 °C. Compound `CNS(=O)(=O)CC(=O)C=C(C)N` has a melting point of 158 to 162 °C. Compound `CCCCCCCCCCCCNC(=O)COc1ccc(O)cc1[N+](=O)[O-]` has a melting point of 150 to 151 °C. `CC(C)(C)c1cc(N(C(=O)Cc2ccccc2C(=O)O)c2ccccc2)cc(C(C)(C)C)c1O` showed a melting point of 170 to 175 °C. `CN1C(=O)Cn2c(-c3ccccc3)nnc2-c2cc(Cl)ccc21` showed a melting point of 204 to 206 °C. `COC(=O)c1cccc(-c2cn(C)cc(-c3ccc(C)cc3)c2=O)c1` showed a melting point of 85 to 88 °C. `c1ccc(COc2ccc3ccc4cccc5ccc2c3c45)cc1` gave a melting point of 105 to 106 °C. With `CC(=O)c1cc(OCc2ccccc2)cc2c1OC(C)(C)C(=O)N2` the melting point was 148 to 150 °C. `Cc1cc(Cl)cc(C(=O)Nc2cccc(F)c2)n1` gave a melting point of 123 °C. Work on `CN(C)C(=Cc1ccccc1[N+](=O)[O-])C(=O)CBr` yielded a melting point of 125 to 127 °C. `CCOc1csc2c(O)c(SC)cnc12` gave a melting point of 180 to 183 °C. With `C=CCc1cc2c(cc1O)CC(=O)N2CC` the melting point was 130 to 131 °C. With `Cc1nc(-n2ccc(N)cc2=O)sc1C(=O)NCc1ccccc1` the melting point was 171 to 172 °C. Work on `O=Cc1ccc(Cl)c(OCCCC(=O)N(CCO)CCCCC2CCCC2)c1[N+](=O)[O-]` yielded a melting point of 107 to 108 °C. With `COC[C@@H]1CCCN1S(=O)(=O)c1ccc(Cl)c(COc2cccc3c(-n4cccn4)cc(C)nc23)c1Cl` the melting point was 75 °C. Work on `COc1ccccc1Sc1c(Cl)nc(C)nc1NS(=O)(=O)c1ccc(C(C)(C)C)cc1` yielded a melting point of 155 °C. `Cc1ccc(S(=O)(=O)NC(=O)NCCc2ccc(-n3c(C(C)O)nc4cc(C(F)(F)F)c(Cl)cc43)cc2)cc1` (stereo not drawn) showed a melting point of 220 °C. In the case of `Cc1n[nH]c(-c2cc(Cl)ccc2N)n1`, the melting point is reported as 190 to 195 °C. Compound `CC(=O)OC1CSC(Oc2cc(-c3ccc(C#N)cc3)cnc2F)C(OC(C)=O)C1OC(C)=O` (stereo not drawn) has a melting point of 132 to 133 °C. Work on `COc1ccc(CCC(=O)NNC(=O)c2ccc3ncsc3c2)cc1C(F)(F)F` yielded a melting point of 208 to 209 °C. Compound `Cc1cccc(-c2nc(N)sc2-c2ccc3ncccc3n2)n1` has a melting point of 188 °C. In the case of `CC(=O)Nc1ccc(C(=O)NC2=Nc3cc(N4CCOCC4)ccc3C3=NCCN23)cn1`, the melting point is reported as 228 °C. Work on `C[C@@H](n1cnc2cc(Oc3ccc(Cl)cc3)ccc2c1=O)[C@](O)(Cn1cncn1)c1ccc(F)cc1F` yielded a melting point of 198 to 199 °C. In the case of `COC(=O)c1ccc(C#CC2(O)CN3CCC2CC3)nc1` (stereo not drawn), the melting point is reported as 180 to 182 °C. Work on `COc1ccc(CNC(=O)Nc2ccc(CN3C(=O)[C@H]4CCC[C@H]4N(C(=O)CN4C(=O)c5ccccc5C4=O)c4ccccc43)cc2)cc1` (relative stereo) yielded a melting point of 156 to 158 °C. Compound `COC(=O)c1cc(N)cc(C=NO)c1` has a melting point of 160 to 162 °C. For `Cc1cscc1NC(=S)Nc1cccc(C)c1N`, the melting point was 184 to 186 °C. Compound `CCOC(=O)c1cc2c3n(ccc-2n1)CC(C(C)(C)C)=N3` has a melting point of 276 to 278 °C. With `CC(SC#N)C(=O)N(CC(=O)OC(C)(C)C)C1CCCC1` (stereo not drawn) the melting point was 76 to 78 °C. `CCOP(=O)(COS(=O)(=O)c1c(C)cccc1Cl)OCC` gave a melting point of 41 to 43 °C. Compound `CCN(CC)C(=O)N1CCN(c2nc(-c3ccccc3)cs2)CC1` has a melting point of 76 to 77 °C. For `CN(C(=O)c1nn(-c2ccc(Cl)cc2Cl)c(-c2ccc(Cl)cc2)c1F)N1CCCCC1`, the melting point was 184 °C. `COC=C(C(=O)OC)c1ccccc1Oc1ncnc(F)c1Cl` showed a melting point of 102 °C. With `CCOC(=O)[C@@H](N)Cc1ccc([N+](=O)[O-])cc1I` the melting point was 33 to 34 °C. For `Cc1ccc2c(c1)c(N1CCN(C(=O)c3cccs3)CC1)c(C#N)c(=O)n2CCN1CCCC1`, the melting point was 139 to 143 °C. With `CC(=NO)c1c(C#N)nn(-c2c(Cl)cc(C(F)(F)F)cc2Cl)c1N` the melting point was 105 to 110 °C. For `CC(C)C(=NSN(C)C(=O)Oc1cccc2c1OC(C)(C)C2)Sc1ccccc1`, the melting point was 104 to 106 °C. For `O=C1Nc2ccccc2C(=O)N2CCCC12` (stereo not drawn), the melting point was 174 °C. `O=C1OC(O)(Nc2ccccc2Br)C(c2ccccc2)C1c1ccccc1` (stereo not drawn) showed a melting point of 162 to 164 °C. Compound `CCCCS(=O)(=O)c1cn(C)c2ccccc2c1=O` has a melting point of 107 to 108 °C. With `Cc1cccc(COc2cccc(OCc3cc(=O)c4ccccc4n3C)c2)c1OCC(=O)O` the melting point was 192 to 194 °C. For `CN(C)c1ccc(C(=C2SCCCS2)c2ccccc2)cc1`, the melting point was 172 to 174 °C. Compound `CNC(=O)NCc1cccc(-c2csc(N=C(N)N)n2)n1` has a melting point of 205 to 206 °C. With `CCCc1c(OCCCS(=O)(=O)c2ccc(C(=O)OC)cn2)ccc(C(C)=O)c1O` the melting point was 114 to 116 °C. Compound `CCOC(=O)c1sc(Oc2ccc(-n3cccc3)cc2)c2c1CCc1cnn(C)c1-2` has a melting point of 139 to 140 °C. With `CCc1nc2c(C)cc(C)nc2n1Cc1ccc(C2(C(=O)O)CCOCC2)s1` the melting point was 214 to 215 °C. In the case of `C[C@H]1C[C@@](O)(c2cccc(S(=O)(=O)c3cc4c(cc3F)N(C)C(=O)CC4)c2)CCO1`, the melting point is reported as 135 to 138 °C. For `C1=C2NCCCN2C(c2ccccc2)c2ccccc2C1` (stereo not drawn), the melting point was 138 to 141 °C. For `CC(C)(C)C(O)c1ccc(C2(c3ccccc3)OCCO2)cc1` (stereo not drawn), the melting point was 90 to 93 °C. In the case of `O=C(NC(=S)Nc1cccc(Oc2ccccc2)c1)c1cccnc1`, the melting point is reported as 144 to 146 °C. Compound `CC(C)c1cc(C(C)C)c(OS(=O)(=O)CC(=O)N(Cc2ccccc2)Cc2ccccc2)c(C(C)C)c1` has a melting point of 107 to 110 °C. `C[C@@H](CO)Cn1c(C(=O)NCc2cc(C(F)(F)F)cc(C(F)(F)F)c2)c(-c2ccccc2)c2cccnc2c1=O` showed a melting point of 101 to 103 °C. With `O=C(Nc1ccc(F)cc1F)c1cccc(Oc2cccc(Cl)c2)n1` the melting point was 116 to 117 °C. `N#CC(C(N)=S)c1ccc(Cl)c(Cl)c1` (stereo not drawn) gave a melting point of 143 °C. Work on `COc1cc(C(=O)NS(=O)(=O)c2ccccc2)ccc1CN1CCOc2ccc(NC(=O)OC3CCCC3)cc21` yielded a melting point of 186 to 187 °C. `C#CCOc1cc(-n2nc(CCC=C)[nH]c2=O)c(Cl)cc1Cl` gave a melting point of 150 to 151 °C. In the case of `Cc1oc(-c2ccccc2)nc1COc1ccc(CON=C(CC(=O)O)c2ccccc2)cc1`, the melting point is reported as 107 to 108 °C. With `CCC(C(=O)O)(c1ccc(OCc2ccc3ccccc3n2)cc1)c1ccc(OCc2ccc3ccccc3n2)cc1` the melting point was 83 to 92 °C. With `O=C(O)c1cc2c(-c3ccccc3)n[nH]c2s1` the melting point was > 260 °C. In the case of `CCC(C)c1cc(Cl)cc(Cl)c1OCC(=O)N1CCSC1=S` (stereo not drawn), the melting point is reported as 96 °C. Work on `Nc1nc2c(sc(=O)n2C2OC(CO)C(O)C2F)c(=O)[nH]1` (stereo not drawn) yielded a melting point of 232 to 234 °C. With `COc1cc(C)c(C=CC(C)=CC=C(C)C(=O)O)c(C)c1C` the melting point was 188 to 190 °C. `Nc1nc(Cl)cc(NCC2(CO)CC(=O)C2)n1` gave a melting point of 171 to 173 °C. For `Cc1cc(-c2cnn3c(C(F)(F)F)cc(-c4cccc(C(F)(F)F)c4)nc23)ccn1`, the melting point was 232 °C. For `COc1cccc(C2(CC(=O)O)C(=O)Nc3ccc(Cl)cc32)c1OC` (stereo not drawn), the melting point was 235 °C. Compound `COc1cc(OC)c2c(=O)[nH]c(-c3ccc(O)c(CCO)c3)nc2c1` has a melting point of 249 to 250 °C. Compound `CCOC(=O)CN1CSCCC(N2C(=O)c3ccccc3C2=O)C1=O` (stereo not drawn) has a melting point of 192 to 194 °C. For `N#Cc1ccc(NC(=O)c2cccc(OCc3ccc(OC(F)(F)F)cc3)c2)cc1`, the melting point was 138 to 139 °C. In the case of `CC(=O)N1c2ccccc2Sc2ccccc21`, the melting point is reported as 210 to 211 °C. Compound `COCOCc1nc2nc(O)cnc2c(=O)[nH]1` has a melting point of 224 to 226 °C. Work on `Clc1ccc2nc(-c3ccsc3)cn2n1` yielded a melting point of 203 to 205 °C. `CC(C)(C)c1nnc(NC(=O)CC(=O)CBr)s1` showed a melting point of 128 to 130 °C. With `CC(=O)C(=NO)C(N)=O` the melting point was 96 to 97 °C. `Cc1ccc(O)c(-c2nc(N(C)C)sc2C(c2ccc(N(C)C)cc2)c2ccc(N(C)C)cc2)c1` gave a melting point of 189 to 191 °C. `COC(OC)c1cnc(C)nc1N` gave a melting point of 102 to 104 °C. `CCC(=O)Cn1c(C)cn(N=Cc2cccnc2)c1=O` showed a melting point of 183 to 184 °C. With `COc1c(F)c(F)c(N)c2c(=O)c(C(=O)O)cn(C3CC3)c12` the melting point was 291 to 292 °C. For `CCN(C(=O)C(C)O)c1cn(-c2cccnc2)nc1Cl` (stereo not drawn), the melting point was 137 to 138 °C. For `COCCc1nc2c(N)nc3ccccc3c2n1CC1(O)CCC1`, the melting point was 169 to 171 °C. `COC(=O)c1cn(-c2ccnc3ccccc23)c2cc(F)ccc12` showed a melting point of 186 °C. Compound `CC(C)(C)NC(=O)[C@@H]1CCCN1C(=O)[C@@H](O)[C@H](Cc1ccccc1)NC(=O)[C@H](CC(N)=O)NC(=O)COc1cccc(N)c1` has a melting point of 108 to 114 °C. For `O=C(Nc1ccccc1C(=O)c1ccc(OC(F)(F)F)cc1)c1ccncc1`, the melting point was 112 to 114 °C. `COc1cccc(C2=C(CC(C)=NO)C(=O)NCCC2)c1` gave a melting point of 155 to 158 °C. With `N#CC(Cc1ccc(-c2ccccc2)cc1)C(=O)N=NO` (stereo not drawn) the melting point was 172 °C. In the case of `Nc1nc(N)c2cc(Cc3ccc(Cl)c(Cl)c3)ccc2n1`, the melting point is reported as 150 to 151 °C. Compound `CC[C@@H](C)[C@H]1c2ccccc2-c2ccccc2N1S(=O)(=O)c1ccc(O)cc1` (relative stereo) has a melting point of 115 to 118 °C. Work on `CCCCOc1nc(N)c2ncn(C3CCCCC3)c2n1` yielded a melting point of 138 to 141 °C. With `CC=Cc1cnn(C)c1S(=O)(=O)NC(=O)Nc1nc(OC)cc(OC)n1` the melting point was 154 to 156 °C. `COc1ccc2[nH]c3c(C(=O)Nc4ccc(CCCCN(C)CCc5ccc(OC)c(OC)c5)cc4)cccc3c(=O)c2c1` showed a melting point of 155 °C.
